A value given as a limit tells only on which side of the number the result lay.

As usually defined, the IC50 is the concentration at which inhibition is half-maximal. Higher therefore signals weaker potency in that assay. The melting point is the temperature, or range, at which the solid turns liquid.

Data set [1] has as its target T1, receptor interacting protein kinase 1 (GST-hRIPK1 (8-327)) (Homo sapiens, UniProt Q13546).
T1 construct: GST-hRIPK1 (8-327) enzyme was generated by Proteros GmbH by Baculovirus expression system
T1 sequence (Q13546 8-327): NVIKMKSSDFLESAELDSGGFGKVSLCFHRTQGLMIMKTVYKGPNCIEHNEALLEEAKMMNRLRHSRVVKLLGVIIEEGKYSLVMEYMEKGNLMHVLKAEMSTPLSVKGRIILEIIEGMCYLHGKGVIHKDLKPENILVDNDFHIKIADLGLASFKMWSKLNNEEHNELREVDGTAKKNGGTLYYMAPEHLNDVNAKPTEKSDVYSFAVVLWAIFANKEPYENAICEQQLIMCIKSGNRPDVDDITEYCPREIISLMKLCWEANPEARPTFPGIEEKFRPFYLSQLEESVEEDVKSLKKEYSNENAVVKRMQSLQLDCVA
Nature of the data set: Fluorescent Polarization Binding (FP Binding) assay. The following applies: 10 nM GST-hRIPK1 (8-327), 5 nM fluorescent-labeled ligand, 30 min at RT. In outline: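 Displacement of 5 nM fluorescent ligand from 10 nM GST-hRIPK1 (8-327), 30 min at room temperature in pH 7.5 HEPES buffer, 1% DMSO. Fluorescence polarization read (ex 531/em 595 nm); IC50 fitted from percent inhibition and averaged over at least two independent experiments.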

For the compound `CC(C)(C(=O)N1OCC[C@H]1c1ccc(-c2noc(C3CC3)n2)cc1)C(F)F` [Compound 208, 1-[(3S)-3-[4-(5-cyclopropyl-1,2,4-oxadiazol-3-yl)phenyl]-1,2-oxazolidin-1-yl]-3,3-difluoro-2,2-dimethylpropan-1-one], the melting point was 92.1 to 95.6 °C. This compound also came in with an IC50 in data set [1] of less than 1000 nM.

For the origin of these results see patent US10709692B2, “Isoxazolidine derived inhibitors of receptor interacting protein kinase 1 (RIPK1)” (Denali Therapeutics Inc., priority 2015, dated 2020).
